Experimental data from PubChem BioAssay (NCI).
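Assay format: 96-well plates, 48-hour exposure. GI50 marks 50% less growth. TGI: total growth inhibition.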

Columns and labels:
Test in all cases: inhibition of tumour cell growth, NCI panel, 48 h
786-0 renal = system: 786-0 renal
A498 renal = system: A498 renal
A549 NSCLC = system: A549 NSCLC
ACHN renal = system: ACHN renal
BT-549 breast = system: BT-549 breast
CAKI-1 renal = system: CAKI-1 renal
CCRF-CEM leukemia = system: CCRF-CEM leukemia
COLO 205 colon = system: COLO 205 colon
DU-145 prostate = system: DU-145 prostate
EKVX NSCLC = system: EKVX NSCLC
HCC-2998 colon = system: HCC-2998 colon
HCT-116 colon = system: HCT-116 colon
HCT-15 colon = system: HCT-15 colon
HOP-62 NSCLC = system: HOP-62 NSCLC
HOP-92 NSCLC = system: HOP-92 NSCLC
HS 578T breast = system: HS 578T breast
HT29 colon = system: HT29 colon
IGROV1 ovarian = system: IGROV1 ovarian
K-562 leukemia = system: K-562 leukemia
KM12 colon = system: KM12 colon
LOX IMVI melanoma = system: LOX IMVI melanoma
M14 melanoma = system: M14 melanoma
MALME-3M melanoma = system: MALME-3M melanoma
MCF7 breast = system: MCF7 breast
MDA-MB-231 breast = system: MDA-MB-231 breast
MDA-MB-435 = system: MDA-MB-435
MOLT-4 leukemia = system: MOLT-4 leukemia
NCI-H226 lung = system: NCI-H226 lung
NCI-H23 lung = system: NCI-H23 lung
NCI-H460 lung = system: NCI-H460 lung
NCI-H522 lung = system: NCI-H522 lung
NCI/ADR-RES ovarian = system: NCI/ADR-RES ovarian
OVCAR-3 ovarian = system: OVCAR-3 ovarian
OVCAR-4 ovarian = system: OVCAR-4 ovarian
OVCAR-5 ovarian = system: OVCAR-5 ovarian
OVCAR-8 ovarian = system: OVCAR-8 ovarian
PC-3 prostate = system: PC-3 prostate
RPMI-8226 leukemia = system: RPMI-8226 leukemia
RXF 393 renal = system: RXF 393 renal
SF-268 CNS = system: SF-268 CNS
SF-295 CNS = system: SF-295 CNS
SF-539 CNS = system: SF-539 CNS
SK-MEL-2 melanoma = system: SK-MEL-2 melanoma
SK-MEL-28 melanoma = system: SK-MEL-28 melanoma
SK-MEL-5 melanoma = system: SK-MEL-5 melanoma
SK-OV-3 ovarian = system: SK-OV-3 ovarian
SN12C renal = system: SN12C renal
SNB-19 CNS = system: SNB-19 CNS
SNB-75 CNS = system: SNB-75 CNS
SR leukemia = system: SR leukemia
SW-620 colon = system: SW-620 colon
T-47D breast = system: T-47D breast
TK-10 renal = system: TK-10 renal
U251 CNS = system: U251 CNS
UACC-257 melanoma = system: UACC-257 melanoma
UACC-62 melanoma = system: UACC-62 melanoma
UO-31 renal = system: UO-31 renal
HL-60(TB) leukemia = system: HL-60(TB) leukemia

## Cc1nn(Cc2ccccc2)cc1C(=O)Nc1sc2c(c1C(N)=O)CCC(=O)C2
786-0 renal
  GI50: 3.55 µM
  TGI: 28.6 µM
A498 renal
  GI50: 3.97 µM
  TGI: 28.2 µM
A549 NSCLC
  GI50: 4.39 µM
  TGI: > 100 µM
ACHN renal
  GI50: 1.65 µM
  TGI: 3.35 µM
BT-549 breast
  GI50: 2.56 µM
  TGI: 7.82 µM
CAKI-1 renal
  GI50: 1.42 µM
  TGI: 2.92 µM
CCRF-CEM leukemia
  GI50: 0.789 µM
  TGI: 17.1 µM
COLO 205 colon
  GI50: 1.67 µM
  TGI: 3.76 µM
DU-145 prostate
  GI50: 3.73 µM
  TGI: > 100 µM
EKVX NSCLC
  GI50: 3.03 µM
  TGI: 21.7 µM
HCC-2998 colon
  GI50: 2.56 µM
  TGI: 7.41 µM
HCT-116 colon
  GI50: 1.28 µM
  TGI: 4.33 µM
HCT-15 colon
  GI50: 1.63 µM
  TGI: 3.72 µM
HOP-62 NSCLC
  GI50: 2.45 µM
  TGI: > 100 µM
HOP-92 NSCLC
  GI50: 1.88 µM
  TGI: 4.47 µM
HS 578T breast
  GI50: 2.51 µM
  TGI: 9.71 µM
HT29 colon
  GI50: 2.27 µM
  TGI: 6.58 µM
IGROV1 ovarian
  GI50: 2.44 µM
  TGI: 7.96 µM
K-562 leukemia
  GI50: 1.7 µM
  TGI: 13.1 µM
KM12 colon
  GI50: 1.94 µM
  TGI: 4.99 µM
LOX IMVI melanoma
  GI50: 1.78 µM
  TGI: 3.79 µM
M14 melanoma
  GI50: 3.42 µM
  TGI: 14.4 µM
MALME-3M melanoma
  GI50: 1.89 µM
  TGI: 3.79 µM
MCF7 breast
  GI50: 2.48 µM
  TGI: 7.59 µM
MDA-MB-231 breast
  GI50: 2 µM
  TGI: 4.86 µM
MDA-MB-435
  GI50: 1.98 µM
  TGI: 4.45 µM
MOLT-4 leukemia
  GI50: 2.62 µM
  TGI: 9.27 µM
NCI-H226 lung
  GI50: 2.29 µM
  TGI: 5.7 µM
NCI-H23 lung
  GI50: 2.52 µM
  TGI: 7.22 µM
NCI-H460 lung
  GI50: 3.52 µM
  TGI: 21.2 µM
NCI-H522 lung
  GI50: 1.25 µM
  TGI: 5.25 µM
NCI/ADR-RES ovarian
  GI50: 3.36 µM
  TGI: 10.1 µM
OVCAR-3 ovarian
  GI50: 1.7 µM
  TGI: 3.43 µM
OVCAR-4 ovarian
  GI50: 1.47 µM
  TGI: 3.45 µM
OVCAR-5 ovarian
  GI50: 1.92 µM
  TGI: 4.3 µM
OVCAR-8 ovarian
  GI50: 3.27 µM
  TGI: > 100 µM
PC-3 prostate
  GI50: 0.752 µM
  TGI: 5.14 µM
RPMI-8226 leukemia
  GI50: 1.18 µM
  TGI: 4.09 µM
RXF 393 renal
  GI50: 2.35 µM
  TGI: 7.1 µM
SF-268 CNS
  GI50: 3.12 µM
  TGI: 21.8 µM
SF-295 CNS
  GI50: 2.68 µM
  TGI: 8.07 µM
SF-539 CNS
  GI50: 1.36 µM
  TGI: 3.02 µM
SK-MEL-2 melanoma
  GI50: 2.12 µM
  TGI: 5.2 µM
SK-MEL-28 melanoma
  GI50: 2.07 µM
  TGI: 4.29 µM
SK-MEL-5 melanoma
  GI50: 1.83 µM
  TGI: 3.33 µM
SK-OV-3 ovarian
  GI50: 2.7 µM
  TGI: 9.22 µM
SN12C renal
  GI50: 2.61 µM
  TGI: 7.74 µM
SNB-19 CNS
  GI50: 3.33 µM
  TGI: > 100 µM
SNB-75 CNS
  GI50: 1.74 µM
  TGI: 6.81 µM
SR leukemia
  GI50: 1.41 µM
  TGI: 8.81 µM
SW-620 colon
  GI50: 0.985 µM
  TGI: 5.78 µM
T-47D breast
  GI50: 1.27 µM
  TGI: 3.79 µM
TK-10 renal
  GI50: 3.33 µM
  TGI: 26.4 µM
U251 CNS
  GI50: 2.62 µM
  TGI: > 100 µM
UACC-257 melanoma
  GI50: 2.16 µM
  TGI: 6.24 µM
UACC-62 melanoma
  GI50: 1.59 µM
  TGI: 3.4 µM
UO-31 renal
  GI50: 1.39 µM
  TGI: 2.88 µM

## C[C@@H](CS[As](C)C)C(=O)N1CCC[C@H]1C(=O)O
786-0 renal
  GI50: 0.0752 µM
  TGI: 1.01 µM
A498 renal
  GI50: 0.804 µM
  TGI: 9.67 µM
A549 NSCLC
  GI50: 1.58 µM
  TGI: > 100 µM
ACHN renal
  GI50: 0.113 µM
  TGI: 1.2 µM
BT-549 breast
  GI50: 0.487 µM
  TGI: 2.31 µM
CAKI-1 renal
  GI50: 0.0977 µM
  TGI: 0.409 µM
CCRF-CEM leukemia
  GI50: 0.142 µM
  TGI: 0.643 µM
COLO 205 colon
  GI50: 0.156 µM
DU-145 prostate
  GI50: 0.19 µM
  TGI: 1.68 µM
EKVX NSCLC
  GI50: 0.723 µM
  TGI: 8.53 µM
HCT-116 colon
  GI50: 0.167 µM
  TGI: > 100 µM
HCT-15 colon
  GI50: 0.0888 µM
  TGI: 1.28 µM
HL-60(TB) leukemia
  GI50: 0.0994 µM
HOP-62 NSCLC
  GI50: 0.897 µM
  TGI: 5.11 µM
HOP-92 NSCLC
  GI50: 0.0514 µM
  TGI: 0.542 µM
HS 578T breast
  GI50: 0.255 µM
  TGI: 0.796 µM
HT29 colon
  GI50: 0.715 µM
  TGI: > 100 µM
IGROV1 ovarian
  GI50: 0.439 µM
  TGI: 3.21 µM
K-562 leukemia
  GI50: 0.051 µM
  TGI: 1.1 µM
KM12 colon
  GI50: 1.9 µM
  TGI: 12.5 µM
LOX IMVI melanoma
  GI50: 0.172 µM
  TGI: 0.673 µM
M14 melanoma
  GI50: 0.105 µM
  TGI: 0.829 µM
MALME-3M melanoma
  GI50: 0.164 µM
  TGI: 1.15 µM
MCF7 breast
  GI50: 0.249 µM
  TGI: 2.03 µM
MDA-MB-231 breast
  GI50: 0.226 µM
  TGI: 1.35 µM
MDA-MB-435
  GI50: 0.138 µM
  TGI: 0.468 µM
MOLT-4 leukemia
  GI50: 0.0933 µM
  TGI: 3.69 µM
NCI-H226 lung
  GI50: 0.364 µM
  TGI: 1.65 µM
NCI-H23 lung
  GI50: 0.359 µM
  TGI: 2.33 µM
NCI-H460 lung
  GI50: 1.4 µM
  TGI: 13.7 µM
NCI-H522 lung
  GI50: 0.0715 µM
  TGI: 0.199 µM
NCI/ADR-RES ovarian
  GI50: 0.224 µM
  TGI: 0.581 µM
OVCAR-3 ovarian
  GI50: 0.0736 µM
  TGI: 0.223 µM
OVCAR-4 ovarian
  GI50: 1.3 µM
OVCAR-5 ovarian
  GI50: 0.444 µM
  TGI: 1.8 µM
OVCAR-8 ovarian
  GI50: 0.299 µM
PC-3 prostate
  GI50: 0.284 µM
  TGI: 1.25 µM
RPMI-8226 leukemia
  GI50: 0.0262 µM
  TGI: 0.0831 µM
RXF 393 renal
  GI50: 0.194 µM
  TGI: 2.81 µM
SF-268 CNS
  GI50: 0.788 µM
  TGI: 6.45 µM
SF-295 CNS
  GI50: 1.79 µM
  TGI: 5.32 µM
SF-539 CNS
  GI50: 0.131 µM
  TGI: 1.41 µM
SK-MEL-2 melanoma
  GI50: 0.468 µM
  TGI: 5.88 µM
SK-MEL-28 melanoma
  GI50: 0.708 µM
  TGI: 21.8 µM
SK-MEL-5 melanoma
  GI50: 0.152 µM
  TGI: 0.436 µM
SK-OV-3 ovarian
  GI50: 0.625 µM
  TGI: 14.6 µM
SN12C renal
  GI50: 0.2 µM
  TGI: 1.03 µM
SNB-19 CNS
  GI50: 3.76 µM
  TGI: 31.2 µM
SNB-75 CNS
  GI50: 0.512 µM
  TGI: 2.25 µM
SR leukemia
  GI50: 0.0553 µM
  TGI: 0.272 µM
SW-620 colon
  GI50: 0.25 µM
  TGI: 2.05 µM
T-47D breast
  GI50: 0.606 µM
  TGI: 5.75 µM
TK-10 renal
  GI50: 0.268 µM
  TGI: 1.11 µM
U251 CNS
  GI50: 0.482 µM
  TGI: 2.43 µM
UACC-257 melanoma
  GI50: 1.45 µM
  TGI: 7.8 µM
UACC-62 melanoma
  GI50: 0.207 µM
  TGI: 0.855 µM
UO-31 renal
  GI50: 0.0923 µM
  TGI: 0.8 µM
